The source of these data is ChEMBL document CHEMBL1151097, “Phenyl-glycinol based NK1 receptor antagonists towards the minimum pharmacophore” (Bioorg Med Chem Lett, 1995).

For data set [1], the target named is Substance-P receptor (Homo sapiens, UniProt P25103). Kind of data set: Binding affinity to human Tachykinin receptor 1.
Data set [2] concerns the target Voltage-gated L-type calcium channel (Homo sapiens, UniProt Q13936+Q13698+Q01668+O60840). Kind of data set: Inhibition of binding to L-type [Ca2+] channel. The data set is classed as protein assay.
The nature of data set [3]: pKa value was determined. The data set is classed as physicochemical.

Substance-P receptor, sequence (P25103 whole entry): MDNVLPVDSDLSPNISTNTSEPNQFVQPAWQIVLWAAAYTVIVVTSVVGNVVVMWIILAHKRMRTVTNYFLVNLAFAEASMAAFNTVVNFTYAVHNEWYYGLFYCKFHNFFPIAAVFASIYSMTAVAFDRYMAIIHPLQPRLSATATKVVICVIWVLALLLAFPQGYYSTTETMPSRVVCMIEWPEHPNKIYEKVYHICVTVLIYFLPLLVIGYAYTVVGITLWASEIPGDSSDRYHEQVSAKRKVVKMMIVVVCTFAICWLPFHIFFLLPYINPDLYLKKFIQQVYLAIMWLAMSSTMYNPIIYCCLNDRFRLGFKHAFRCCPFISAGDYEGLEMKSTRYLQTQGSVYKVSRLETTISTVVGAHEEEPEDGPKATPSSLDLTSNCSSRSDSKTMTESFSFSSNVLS

One may read the IC50 as the concentration that inhibits the measured activity by half. Take `COc1cc(C)cc(COC[C@@H](N)c2ccccc2)c1`: in data set [1], the half-inhibitory concentration (IC50) is 135 nM.

Consider `CC(OCc1cc(C(F)(F)F)cc(C(F)(F)F)c1)C(N)c1ccccc1` (single isomer, unassigned; diastereomer B), for which the IC50 in data set [1] was determined as 7 nM. On the same count and under the same terms, with `CC(OCC(N)c1ccccc1)c1cc(C(F)(F)F)cc(C(F)(F)F)c1` (stereo not given) the figure was 4.3 nM.

In the case of `NC(=O)CN[C@H](COCc1cc(C(F)(F)F)cc(C(F)(F)F)c1)c1ccccc1`, the figures for the IC50 in data set [2] and in data set [1] were 2300 nM and 8 nM, respectively. In the same order, the values of `CN(CC(N)=O)[C@H](COCc1cc(C(F)(F)F)cc(C(F)(F)F)c1)c1ccccc1` are greater than 10000 nM and 5.8 nM. Take `CC(OCc1cc(C(F)(F)F)cc(C(F)(F)F)c1)C(N)c1ccccc1` (single isomer, unassigned; diastereomer A): the IC50 in data set [1] is 95 nM. The same measure, in the same setting: under `CC(N)(COCc1cc(C(F)(F)F)cc(C(F)(F)F)c1)c1ccccc1` (stereo not given) stands 30 nM. The same measure, in the same setting: with `N[C@H](COCc1cc(Cl)cc(Cl)c1)c1ccccc1` the figure was 49 nM. Compound `Cc1cc(Br)cc(COC[C@@H](N)c2ccccc2)c1` gave an IC50 in data set [1] of 20 nM. In the case of `Cc1cc(COC[C@@H](N)c2ccccc2)cc(C(C)(C)C)c1`, the IC50 in data set [1] worked out at 13.7 nM. What is called pKa is the pH at which an ionisable group is half protonated. Read a low pKa as a stronger acid or weaker base. As for `N[C@H](COCc1cc(C(F)(F)F)cc(C(F)(F)F)c1)c1ccccc1`, the pKa in data set [3] came out at 7.93. For the same compound, the IC50 was found to be 580 nM in data set [2] and 13 nM in data set [1].
